Consider twelve compounds from patent US11021481B2, “Substituted isoindolin-1-ones and 2,3-dihydro-1h-pyrrolo[3,4-c]pyridin-1-ones as HPK1 antagonists” (Nimbus Saturn, Inc., priority 2019, dated 2021).

Some results are limits rather than exact numbers.

In general, IC50 refers to the concentration needed to halve the response being measured.

For the assay, the target named is HPK1 (Homo sapiens (Human), UniProt Q92918). Put plainly: HPK1 biochemical enzyme assay (microfluidic mobility shift assay). The conditions noted are these: 1.5 nM HPK1, ATP 1 mM final, 30 min preincubation, 60 min at RT, Caliper EZ Reader; read-out: HPK1 1000UMATP caliper IC50. Put shortly: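 Mobility shift readout of HPK1 activity after a 60 min RT reaction with 1 mM ATP, 1 μM substrate and 5 mM MgCl2. Enzyme/substrate mix was first exposed to compounds for 30 min, using ten-point curves topping at 3 μM final.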
HPK1, sequence (Q92918 whole entry): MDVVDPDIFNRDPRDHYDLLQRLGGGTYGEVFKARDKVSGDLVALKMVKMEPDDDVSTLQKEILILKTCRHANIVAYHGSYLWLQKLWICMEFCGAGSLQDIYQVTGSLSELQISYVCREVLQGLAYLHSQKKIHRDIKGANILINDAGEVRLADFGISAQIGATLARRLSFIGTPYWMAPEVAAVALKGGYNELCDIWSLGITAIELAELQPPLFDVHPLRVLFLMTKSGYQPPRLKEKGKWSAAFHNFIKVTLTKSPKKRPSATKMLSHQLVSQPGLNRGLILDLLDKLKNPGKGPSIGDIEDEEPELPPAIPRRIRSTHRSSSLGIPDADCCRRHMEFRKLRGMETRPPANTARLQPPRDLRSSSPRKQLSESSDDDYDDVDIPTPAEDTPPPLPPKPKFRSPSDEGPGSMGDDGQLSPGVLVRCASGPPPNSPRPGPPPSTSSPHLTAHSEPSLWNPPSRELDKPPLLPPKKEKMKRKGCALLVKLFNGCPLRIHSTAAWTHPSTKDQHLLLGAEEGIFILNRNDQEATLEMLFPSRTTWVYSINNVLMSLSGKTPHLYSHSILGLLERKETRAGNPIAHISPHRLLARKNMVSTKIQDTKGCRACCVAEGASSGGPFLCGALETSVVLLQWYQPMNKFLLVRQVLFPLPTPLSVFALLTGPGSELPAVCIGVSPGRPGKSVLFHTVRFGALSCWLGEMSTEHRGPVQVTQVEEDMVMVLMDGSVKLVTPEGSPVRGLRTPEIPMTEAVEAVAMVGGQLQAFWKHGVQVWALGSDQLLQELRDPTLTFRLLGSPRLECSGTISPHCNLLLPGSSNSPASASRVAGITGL
On to `CN(C)Cc1nc(Nc2ccc(-c3cnc4cnccn34)c3c2C(=O)NC3)ccc1[C@H]1CCOC1` [I-713, (R)-7-((6-((dimethylamino)-methyl)-5-(tetrahydrofuran-3-yl)pyridin-2-yl)amino)-4-(imidazo[1,2-a]pyrazin-3-yl)isoindolin-1-one], for which the IC50 was less than 100 nM.
Take `CN(C)Cc1nc(Nc2ccc(-c3cnc4cnccn34)c3c2C(=O)NC3)ccc1[C@@H]1CCOC1` [I-714, (S)-7-((6-((dimethylamino)-methyl)-5-(tetrahydrofuran-3-yl)pyridin-2-yl)amino)-4-(imidazo[1,2-a]pyrazin-3-yl)isoindolin-1-one]: the 50% inhibitory concentration (IC50) was less than 100 nM.
For `CN(C)C(C)(C)[C@]1(O)CCCN(c2ccc(Nc3ccc(-c4cnc5cc(F)ccn45)c4c3C(=O)NC4)nc2)C1` [I-715, (S)-7-((5-(3-(2-(dimethylami-no)propan-2-yl)-3-hydroxy-piperidin-1-yl)pyridin-2-yl)amino)-4-(7-fluoroimidazo [1,2-a]pyridin-3-yl)isoindolin-1-one], the IC50 was less than 100 nM.
In the case of `CN(C)C(C)(C)[C@@]1(O)CCCN(c2ccc(Nc3ccc(-c4cnc5cc(F)ccn45)c4c3C(=O)NC4)nc2)C1` [I-716, (R)-7-((5-(3-(2-(dimethylainino)propan-2-yl)-3-hydroxy-piperidin-1-yl)pyridin-2-yl)amino)-4-(7-fluoroimidazo [1,2-a]pyridin-3-yl)isoindolin-1-one], the IC50 was less than 100 nM.
For `O=C1NCc2c(-c3cnc4cc(F)ccn34)ccc(Nc3ccc([C@H]4CCOC4)c(CN4CCC(F)(F)C4)n3)c21` [I-717, (R)-7-((6-((3,3-difluoropyrro-lidin-1-yl)methyl)-5-(tetrahydrofuran-3-yl)pyridin-2-yl)amino)-4-(7-fluoroimidazo [1,2-a]pyridin-3-yl)isoindolin-1-one] the value was less than 100 nM; for `O=C1NCc2c(-c3cnc4cc(F)ccn34)ccc(Nc3ccc([C@@H]4CCOC4)c(CN4CCC(F)(F)C4)n3)c21` [I-718, (S)-7-((6-((3,3-difluoropyrro-lidin-1-yl)methyl)-5-(tetrahydrofuran-3-yl)pyridin-2-yl)amino)-4-(7-fluoroimidazo [1,2-a]pyridin-3-yl)isoindolin-1-one], less than 100 nM; for `CN(C)Cc1nc(Nc2ccc(-c3cnc4cc(F)ccn34)c3c2C(=O)NC3)ccc1C1(O)CCOCC1` [I-719, 7-((6-((dimethylamino)-methyl)-5-(4-hydroxytetra-hydro-2H-pyran-4-yl)pyridin-2-yl)amino)-4-(7-fluoroimidazo [1,2-a]pyridin-3-yl)isoindolin-1-one], less than 100 nM.
For `Cn1ccc2c(-c3ncc(Nc4cccc(N5C[C@H](N6CCC6)CC5=O)n4)c4c3CNC4=O)ccnc21` [I-724, (R)-7-((6-(4-(azetidin-1-yl)-2-oxopyrrolidin-1-yl)pyridin-2-yl)amino)-4-(1-methyl-1H-pyrrolo[2,3-b]pyridin-4-yl)-2,3-dihydro-1H-pyrrolo[3,4-c]pyridin-1-one], the concentration for half-maximal inhibition (IC50) lay within 100 to 1000 nM.
The same measure for `Cn1ccc2c(-c3ncc(Nc4cccc(N5C[C@@H](N6CCC6)CC5=O)n4)c4c3CNC4=O)ccnc21` [I-725, (S)-7-((6-(4-(azetidin-1-yl)-2-oxopyrrolidin-1-yl)pyridin-2-yl)amino)-4-(1-methyl-1H-pyrrolo[2,3-b]pyridin-4-yl)-2,3-dihydro-1H-pyrrolo[3,4-c]pyridin-1-one]: less than 100 nM.
On to `CN(Cc1nc(Nc2ccc(-c3cnc4cc(F)ccn34)c3c2C(=O)NC3)ccc1[C@H]1CCOC1)C1CC1` [I-737], for which the IC50 was less than 100 nM.
On to `CN(Cc1nc(Nc2ccc(-c3cnc4cc(F)ccn34)c3c2C(=O)NC3)ccc1[C@@H]1CCOC1)C1CC1` [I-738], for which the IC50 is less than 100 nM.
As to `CN(Cc1nc(Nc2ccc(-c3cnc4cc(F)ccn34)c3c2C(=O)NC3)ccc1[C@H]1CCOC1)C1COC1` [I-743, (R)-4-(7-fluoroimidazo [1,2-a]pyridin-3-yl)-7-((6-((methyl(oxe-tan-3-yl)amino)meth-yl)-5-(tetrahydrofuran-3-yl)pyridin-2-yl)amino)isoin-dolin-1-one], the IC50 is less than 100 nM.
